Test results: patent publication US8709406B2, “Prevention and treatment of oxidative stress disorders by gluthathione and phase II detoxification enzymes” (Brassica Foundation for ChemoProtection Research, priority 2001, dated 2014)

Experiments:
L1210 cells = experiment: Menadione cytotoxicity (MTT, median effect analysis) and protection by sulforaphane; type: cell-based, mouse; conditions: menadione 2 h
Protocol: Mouse L1210 leukemia cells, a gift from Dr. Joseph G. Cory, East Carolina State University, Greenville, N.C., were grown in RPMI 1640 medium supplemented with 10% horse serum. All cultures were incubated in a humidified atmosphere of 5% CO2 at 37° C. Media and sera were obtained from Life Technologies (Rockville, Md.).
All experiments were performed in 96-well microliter plates. ARPE-19 and HaCaT cells were seeded at 10,000 cells per well and grown for 24 h before addition of sulforaphane, whereas L1210 cells (5,000 cells/well) were not incubated before sulforaphane treatment. Solutions of sulforaphane (5 mM) in dimethyl sulfoxide were diluted with the cognate culture medium to provide final inducer concentrations of 0.16-5.0 μM. The final DMSO concentrations were 0.1% by volume.
Cell viability was determined by spectroscopic measurement of the reduction of MTT (Carmichael, J., DeGraff, W. G., Gazdar, A. F., Minna, J. D. & Mitchell, J. B. (1987) Cancer Res. 47, 936-942). The culture media were discarded after the designated incubation periods, the cells were washed three times with PBS by use of a microtiter plate washer (Ultrawash Plus, Dynex Technologies, Chantilly, Va.). Each well then received 150 μl of an MTT solution (0.5 mg/ml) in serum-free medium. The plates were incubated for 2 h at 37° C., the MTT solution was discarded, 100 μl of DMSO were added to each well, and the plates were shaken at 200 rpm on an orbital shaker for 5 min. The absorbances of the wells were determined at 555 nm with a microtiter plate reader (Spectra Max Plus, Molecular Devices, Sunnyvale, Calif.). The absorbance of reduced MIT was then compared at each inducer and oxidant concentration to that of untreated control cells that received only the vehicle in which sulforaphane (DMSO) and menadione (DMSO or PBS) were dissolved. In each experiment three identical 96-well plates were used and the means of the absorbance values, the standard deviations of these means, and their coefficients of variation were calculated.
Dose-effect analyses were performed according to the Median Effect Equation, by use of a computer program (Chou, T. C. & Hayball, M. (1996) CalcuSyn for Windows 3.1 and 95: multiple dose effect analyzer and manual for IBM-PC, Biosoft, Cambridge, U.K). The equation: fa/fu=[D/Dm]^m, where fa is the fraction of cells affected by the oxidant, fu is the fraction unaffected (i.e., 1-fa), D is the dose of oxidant required to produce the effect fa, Dm is the concentration of oxidant required to produce a 50% effect, i.e., when fa=fu, and the slope m is a measure of the sigmoidicity of the dose-response curve, and is therefore a measure of cooperativity. The results are analyzed by plotting log(fa/fu) with respect to log D of the oxidant. The computer program provides the slope (m) of the curves, and the goodness of fit (r^2) to linearity.

[1] = system: glucose 6-phosphate dehydrogenase; conditions: ARPE-19; sulforaphane 0.625 and 2.5 μM 24 h, then medium without inducer
Protocol: (§1) Cells were lysed by addition of a digitonin solution (0.8 mg/ml digitonin in 2 mM EDTA, pH 7.8), incubated at 37° C. for 20 min, gently shaken for 20 min at 25° C., and centrifuged at 1,500×g for 20 min at 4° C.
(§2) All measurements were made in 96-well microtiter plates at 25° C., and reaction rates were monitored with a microtiter plate reader. The QR activities of supernatant fractions were determined by procedures developed in our laboratory (Fahey, J. W., Zhang, Y. & Talalay, P. (1997) Proc. Natl. Acad. Sci. USA 94, 10367-10372; Prochaska, H. J., Santamaria, A. B. & Talalay, P. (1992) Proc. Natl. Acad. Sci. USA 89, 2394-2398.). Specific activities were obtained by relating the reaction rates to protein concentrations determined with the bicinchoninic acid reagent (Smith, P. K., Krohn, R. I., Hermanson, G. T., Mallia, A. K., Gratner, F. H., Provenzano, M. D., Fujimoto, E. K., Goeke, N. M., Olson, B. J. & Klenk, D. C. (1985) Anal. Biochem. 150, 76-85). […] Glutathione reductase activity was assayed by mixing 50 μl of cell lysate with 25 μl of 1 mM NADPH, 25 μl of GSSG (20 mg/ml), and 150 μl of 50 mM sodium phosphate, pH 7.5. Initial reaction rates were obtained at 340 nm (Carlberg, I. & Mannervik, B. (1985) Methods Enzymol. 113, 484-490).

glutathione reductase = conditions: ARPE-19; sulforaphane 0.625 and 2.5 μM 24 h, then medium without inducer
Protocol: as §1, §2

quinone reductase = conditions: ARPE-19
Protocol: as §1, §2

[2] = after sulforaphane 0.16 μM 24 h
[3] = after sulforaphane 0.31 μM 24 h
[4] = after sulforaphane 0.63 μM 24 h

## C[S+]([O-])CCCCN=C=S (stereo not shown) [Sulforaphane]
L1210 cells; [2]
  Dm (median effect concentration) of menadione: 19.6 µM
  m (slope of median effect plot) for menadione: 0.864
L1210 cells; [3]
  Dm (median effect concentration) of menadione: 26.5 µM
  m (slope of median effect plot) for menadione: 1.00
L1210 cells; [4]
  Dm (median effect concentration) of menadione: 36.2 µM
  m (slope of median effect plot) for menadione: 1.17
[1]
  specific activity of glucose 6-phosphate dehydrogenase after removal of sulforaphane: continued to rise for 48 h after removal of sulforaphane
Glutathione reductase
  specific activity of glutathione reductase after removal of sulforaphane: continued to rise for 48 h after removal of sulforaphane
Quinone reductase; sulforaphane 0-5.0 μM 24 h
  specific activities of QR in cytosols: rose with exposure to increasing concentrations of sulforaphane
Quinone reductase; sulforaphane 0.625 and 2.5 μM 24 h, then medium without inducer
  specific activity of QR after removal of sulforaphane: continued to rise for 48 h after removal of sulforaphane
